Assay results from publication PMC12118337, “Development of a Peptide Inhibitor Targeting the C‐SH2 Domain of the SHP2 Phosphatase” (Chembiochem, 2025).
Non-standard residues stand in square brackets, D forms with d. Residues, ends and D or L forms follow the SMILES beside them. *: point of attachment. 5FAM = O=C1OC2(c3ccc(O)cc3Oc3cc(O)ccc32)c2ccc(C(=O)*)cc21; pY = N[C@@H](Cc1ccc(OP(=O)(O)O)cc1)C(=O)O

How the values were obtained:
SHP2 C‐SH2 domain = biological target: T1, SHP2 C‐SH2 domain (Homo sapiens, UniProt Q06124); assay: Fluorescence polarization (FP) binding assay, SHP2 C-SH2 domain; settings: 100 nM FAM-labelled peptide, increasing C-SH2 protein, 50 mM HEPES pH 7.5, 150 mM NaCl, 1 mM EDTA, 0.05% Tween 20, FP at 10 min, three independent experiments in technical triplicates, read-out: K D ± SEM, C‐SH2 (FP)
T1 construct: SHP2 N-SH2 domain (1–105), C-SH2 domain (106–220), PTP domain (224–541) and; His6 (pETM22 vector) (N, cleaved yes); made in house; host or cells: E. coli BL21(DE3)
T1 sequence (Q06124 106-220): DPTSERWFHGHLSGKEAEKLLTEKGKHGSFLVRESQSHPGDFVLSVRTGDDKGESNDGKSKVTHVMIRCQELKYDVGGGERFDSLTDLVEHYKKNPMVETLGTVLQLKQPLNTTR
Procedure: (§1) buffer and stored in 5 mL binding buffer at 4°C. His-tagged 3C protease (0.5 mg; EMBL) was added to the pooled eluted fractions and dialysed using Spectra Por Dialysis Tubing (MWCO 6-8 kDa, 23 mm; Spectrum Labs) in 1 L of binding buffer at 4°C for 3 hours, then overnight in fresh buffer. A new column was prepared by loading 2 mL Ni-NTA Agarose (Invitrogen) as a 50% slurry in EtOH. The column was washed with 10 mL H2O to remove the EtOH and equilibrated with 10 mL binding buffer. The protein/3C protease mixture was loaded onto the column and incubated for 1 hour at 4°C on a rocker. The flow through containing the protein was collected, the column was washed with 100 mL binding buffer and the 3C protease was eluted with 5 mL elution buffer. Protein purification was monitored by SDS-PAGE using NuPAGE 4-12% Bis-Tris Protein Gels (Invitrogen) run in MOPS buffer (50 mM MOPS, 50 mM Tris-HCl pH 7.7, 1 mM EDTA, 0.1% SDS) followed by Coomassie staining using Coomassie Brilliant Blue (Roth). The purified protein was dialysed into the final storage buffer (50 mM HEPES pH 7.5, 150 mM NaCl, 2 mM DTT, 20% glycerol). Aliquots were prepared and stored at -80°C until required. […]
(§2) 4. Fluorescence polarization
(§3) Fluorescence polarization (FP) was used to measure the binding of FAM-labelled peptides to the SHP2 C-SH2, SHP2 N-SH2, SHP2 PTP, CSK SH2 or Src SH2 domains. Each peptide was added to increasing concentrations of SHP2 C-SH2, SHP2 N-SH2, SHP2 PTP, CSK SH2 or Src SH2 protein in FP buffer (50 mM HEPES pH 7.5, 150 mM NaCl, 1 mM EDTA, 0.05% Tween 20) to give a final peptide […]
(§4) concentration of 100 nM in a final volume of 200 µL. For baseline subtraction, each peptide was added to FP buffer, instead of protein, with a final peptide concentration of 100 nM in a final volume of 200 µL. Samples were mixed gently then 3 x 60 µL of each sample was transferred into triplicate wells in a 96-well plate (OptiPlate-96 F Black; PerkinElmer). The FP was immediately measured on a Synergy H1 Microplate Reader (BioTek) with the excitation and emission monitored at 485 nm and 528 nm, respectively, over 30 minutes. FP values were automatically calculated by the Gen5 3.03 (BioTek) software associated with the microplate reader. Data were analysed in Excel 2016 by subtracting baseline values from FP values at 10 minutes. Data were then further analysed in GraphPad Prism 6 by plotting the baseline subtracted FP values against the protein concentration and fitting the data to a variable slope model of non-linear regression to obtain the KD values. Data are from three independent experiments, each performed in technical triplicates.
(§5) 5. Isothermal titration calorimetry […]
(§6) Analysis Software (Malvern Panalytical). For the data analysis, a 1:1 binding stoichiometry between the Ac-ITSM(pTyr) and SH2 domain was assumed. ITC measurements were performed once.

SHP2 N‐SH2 domain = biological target: T2, SHP2 N‐SH2 domain (Homo sapiens, UniProt Q06124); assay: Fluorescence polarization (FP) binding assay, SHP2 N-SH2 domain; settings: 100 nM FAM-labelled peptide, increasing N-SH2 protein, 50 mM HEPES pH 7.5, 150 mM NaCl, 1 mM EDTA, 0.05% Tween 20, FP at 10 min, three independent experiments in technical triplicates, read-out: K D ± SEM, N‐SH2 (FP)
T2 construct: SHP2 N-SH2 domain (1–105), C-SH2 domain (106–220), PTP domain (224–541) and; His6 (pETM22 vector) (N, cleaved yes); made in house; host or cells: E. coli BL21(DE3)
T2 sequence (Q06124 1-105): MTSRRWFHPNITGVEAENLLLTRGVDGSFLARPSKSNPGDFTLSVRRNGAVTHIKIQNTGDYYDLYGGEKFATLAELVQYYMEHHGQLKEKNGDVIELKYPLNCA
Procedure: as §1, §2, §3, §4, §5, §6

SMILES | Kd (SHP2 C‐SH2 domain) | Kd (SHP2 N‐SH2 domain)
CC[C@H](C)[C@H](NC(=O)[C@@H](NC(=O)[C@H](C)NC(=O)[C@H](Cc1ccc(OP(=O)(O)O)cc1)NC(=O)[C@H](CCC(=O)O)NC(=O)[C@@H](NC(=O)[C@H](CCC(N)=O)NC(=O)[C@H](CCC(=O)O)NC(=O)c1ccc2c(c1)C(=O)OC21c2ccc(O)cc2Oc2cc(O)ccc21)[C@@H](C)O)[C@@H](C)O)C(=O)N[C@@H](CCCCN)C(=O)N[C@@H](Cc1ccccc1)C(=O)N1CCC[C@H]1C(N)=O [compound 9] (5FAM-EQTE[pY]ATIKFP-NH2) | 72 ± 2.61 nM | > 2000 nM
CC(C)[C@H](NC(=O)[C@@H](NC(=O)[C@H](C)NC(=O)[C@H](Cc1ccc(OP(=O)(O)O)cc1)NC(=O)[C@H](CCC(=O)O)NC(=O)[C@@H](NC(=O)[C@H](CCC(N)=O)NC(=O)[C@H](CCC(=O)O)NC(=O)c1ccc2c(c1)C(=O)OC21c2ccc(O)cc2Oc2cc(O)ccc21)[C@@H](C)O)[C@@H](C)O)C(=O)N[C@@H](CCCCN)C(=O)N[C@@H](Cc1ccccc1)C(=O)N1CCC[C@H]1C(N)=O [compound 10] (5FAM-EQTE[pY]ATVKFP-NH2) | 209 ± 14.4 nM | > 3000 nM
CC[C@H](C)[C@H](NC(=O)[C@@H](NC(=O)[C@H](C)NC(=O)[C@H](Cc1ccc(OP(=O)(O)O)cc1)NC(=O)[C@H](CCC(=O)O)NC(=O)[C@@H](NC(=O)[C@H](CCC(N)=O)NC(=O)c1ccc2c(c1)C(=O)OC21c2ccc(O)cc2Oc2cc(O)ccc21)[C@@H](C)O)[C@@H](C)O)C(=O)N[C@H](C(=O)N[C@@H](Cc1ccccc1)C(=O)N1CCC[C@H]1C(N)=O)C(C)C [compound 11] (5FAM-QTE[pY]ATIVFP-NH2) | 40.8 ± 0.96 nM | 204 ± 10.4 nM
CC[C@H](C)[C@H](NC(=O)[C@@H](NC(=O)[C@H](C)NC(=O)[C@H](Cc1ccc(OP(=O)(O)O)cc1)NC(=O)[C@H](CCC(=O)O)NC(=O)[C@@H](NC(=O)[C@H](CCC(N)=O)NC(=O)c1ccc2c(c1)C(=O)OC21c2ccc(O)cc2Oc2cc(O)ccc21)[C@@H](C)O)[C@@H](C)O)C(=O)N[C@@H](CCCCN)C(=O)N[C@@H](Cc1c[nH]c2ccccc12)C(=O)N1CCC[C@H]1C(N)=O [compound 13] (5FAM-QTE[pY]ATIKWP-NH2) | 46.8 ± 1.29 nM | 368 ± 40 nM
CC[C@H](C)[C@H](NC(=O)[C@@H](NC(=O)[C@H](C)NC(=O)[C@H](Cc1ccc(OP(=O)(O)O)cc1)NC(=O)[C@H](CCC(=O)O)NC(=O)[C@@H](NC(=O)[C@H](CCC(N)=O)NC(=O)c1ccc2c(c1)C(=O)OC21c2ccc(O)cc2Oc2cc(O)ccc21)[C@@H](C)O)C(C)C)C(=O)N[C@@H](CCCCN)C(=O)N[C@@H](Cc1ccccc1)C(=O)N1CCC[C@H]1C(N)=O [compound 14] (5FAM-QTE[pY]AVIKFP-NH2) | 80.2 ± 4.32 nM | 840 ± 228 nM
CC[C@H](C)[C@H](NC(=O)[C@@H](NC(=O)[C@H](C)NC(=O)[C@H](Cc1ccc(OP(=O)(O)O)cc1)NC(=O)[C@H](CCC(=O)O)NC(=O)[C@@H](NC(=O)[C@H](CCCCN)NC(=O)c1ccc2c(c1)C(=O)OC21c2ccc(O)cc2Oc2cc(O)ccc21)[C@@H](C)O)[C@@H](C)O)C(=O)N[C@@H](CCCCN)C(=O)N[C@@H](Cc1ccccc1)C(=O)N1CCC[C@H]1C(N)=O [compound 15] (5FAM-KTE[pY]ATIKFP-NH2) | 61.5 ± 1.83 nM | 1550 ± 528 nM
CC[C@H](C)[C@H](NC(=O)[C@@H](NC(=O)[C@H](C)NC(=O)[C@H](Cc1ccc(OP(=O)(O)O)cc1)NC(=O)[C@H](CCC(=O)O)NC(=O)[C@@H](NC(=O)[C@H](CCC(N)=O)NC(=O)c1ccc2c(c1)C(=O)OC21c2ccc(O)cc2Oc2cc(O)ccc21)[C@@H](C)O)[C@@H](C)O)C(=O)N[C@@H](CCCCN)C(=O)N[C@@H](Cc1ccccc1)C(=O)N1CCC[C@H]1C(N)=O [compound 16] (5FAM-QTE[pY]ATIKFP-NH2) | 86 ± 2.43 nM | 1090 ± 199 nM
CC[C@H](C)[C@H](NC(=O)[C@@H](NC(=O)[C@H](C)NC(=O)[C@H](Cc1ccc(OP(=O)(O)O)cc1)NC(=O)[C@H](CCC(=O)O)NC(=O)[C@@H](NC(=O)[C@H](CCC(N)=O)NC(=O)c1ccc2c(c1)C(=O)OC21c2ccc(O)cc2Oc2cc(O)ccc21)[C@@H](C)O)[C@@H](C)O)C(=O)N[C@@H](CCCCN)C(=O)N[C@@H](Cc1ccc(O)cc1)C(=O)N1CCC[C@H]1C(N)=O [compound 17] (5FAM-QTE[pY]ATIKYP-NH2) | 116 ± 7.7 nM | > 3000 nM
CC[C@H](C)[C@H](NC(=O)[C@@H](NC(=O)[C@H](C)NC(=O)[C@H](Cc1ccc(OP(=O)(O)O)cc1)NC(=O)[C@H](CCC(=O)O)NC(=O)[C@@H](NC(=O)[C@H](CCC(N)=O)NC(=O)[C@H](C)NC(=O)c1ccc2c(c1)C(=O)OC21c2ccc(O)cc2Oc2cc(O)ccc21)[C@@H](C)O)[C@@H](C)O)C(=O)N[C@H](C(=O)N[C@@H](Cc1ccccc1)C(=O)N1CCC[C@H]1C(N)=O)C(C)C [peptide 1] (5FAM-AQTE[pY]ATIVFP-NH2) | 62 ± 1.98 nM | 295 ± 37.2 nM
CC[C@H](C)[C@H](NC(=O)[C@@H](NC(=O)[C@H](C)NC(=O)[C@H](Cc1ccc(OP(=O)(O)O)cc1)NC(=O)[C@H](CCC(=O)O)NC(=O)[C@@H](NC(=O)[C@H](C)NC(=O)[C@H](CCC(=O)O)NC(=O)c1ccc2c(c1)C(=O)OC21c2ccc(O)cc2Oc2cc(O)ccc21)[C@@H](C)O)[C@@H](C)O)C(=O)N[C@H](C(=O)N[C@@H](Cc1ccccc1)C(=O)N1CCC[C@H]1C(N)=O)C(C)C [peptide 2] (5FAM-EATE[pY]ATIVFP-NH2) | 51.3 ± 1.08 nM | 58 ± 4.6 nM
CC[C@H](C)[C@H](NC(=O)[C@@H](NC(=O)[C@H](C)NC(=O)[C@H](Cc1ccc(OP(=O)(O)O)cc1)NC(=O)[C@H](CCC(=O)O)NC(=O)[C@H](C)NC(=O)[C@H](CCC(N)=O)NC(=O)[C@H](CCC(=O)O)NC(=O)c1ccc2c(c1)C(=O)OC21c2ccc(O)cc2Oc2cc(O)ccc21)[C@@H](C)O)C(=O)N[C@H](C(=O)N[C@@H](Cc1ccccc1)C(=O)N1CCC[C@H]1C(N)=O)C(C)C [peptide 3] (5FAM-EQAE[pY]ATIVFP-NH2) | 135 ± 4.6 nM | 428 ± 25.1 nM
CC[C@H](C)[C@H](NC(=O)[C@@H](NC(=O)[C@H](C)NC(=O)[C@H](Cc1ccc(OP(=O)(O)O)cc1)NC(=O)[C@H](CCC(=O)O)NC(=O)[C@@H](NC(=O)[C@H](CCC(N)=O)NC(=O)c1ccc2c(c1)C(=O)OC21c2ccc(O)cc2Oc2cc(O)ccc21)[C@@H](C)O)[C@@H](C)O)C(=O)N[C@@H](CCCCN)C(=O)N[C@@H](Cc1c[nH]cn1)C(=O)N1CCC[C@H]1C(N)=O [peptide 18] (5FAM-QTE[pY]ATIKHP-NH2) | 88.2 ± 4.29 nM | > 3000 nM
